According to EPA's ToxRefDB 2:

Experiments:
rat [1] = settings: Sub-acute repeat dose toxicity, Oral, Gavage/Intubation, dose end: 7 day, group: systemic
mouse [2] = settings: Fertility (Segment I), Oral, Gavage/Intubation, dose end: 1 generation
dog = settings: Subchronic oral toxicity in nonrodent, beagle, Gavage/Intubation, dose end: 90 day, group: systemic
mouse [3] = settings: Fertility (Segment I), Oral, Gavage/Intubation, dose end: 1 generation; remark: listed apart in the source
rat [4] = settings: Sub-acute repeat dose toxicity; Oral; Gavage/Intubation; dose end: 7 day; group: systemic; systemic / pathology microscopic / kidney / hyaline droplet + systemic / pathology microscopic / kidney / regeneration + systemic / …
rat [5] = settings: Sub-acute repeat dose toxicity; Oral; Gavage/Intubation; dose end: 7 day; group: systemic; systemic / clinical chemistry / globulins / globulins + systemic / clinical chemistry / bilirubin / total bilirubin + systemic / organ …
rabbit = settings: Sub-acute repeat dose toxicity, Oral, Gavage/Intubation, dose end: 7 day, group: systemic
mouse [6] = settings: Sub-acute repeat dose toxicity; Oral; Feed; dose end: 14 day; group: systemic; systemic / in life observation / clinical signs / [other] + systemic / in life observation / clinical signs / anogenital staining + systemic…
rat [7] = settings: Sub-acute repeat dose toxicity, Oral, Gavage/Intubation, dose end: 14 day, group: systemic
[8] = systemic / clinical chemistry / cholesterol / cholesterol + systemic / clinical chemistry / protein / protein + systemic / hematology / …
[9] = systemic / clinical chemistry / cholesterol / cholesterol + systemic / hematology / eosinophils / eosinophils + systemic / clinical …
[10] = group: maternal, reproductive / reproductive performance / mating / mating + reproductive / reproductive performance / precoital interval / precoital …
[11] = group: parental, systemic / in life observation / body weight / body weight gain + systemic / in life observation / food consumption / food consumption + …
[12] = systemic / clinical chemistry / alanine aminotransferase (alt/sgpt) / alanine aminotransferase (alt/sgpt) + systemic / clinical chemistry / …
[13] = systemic / clinical chemistry / alkaline phosphatase (alp/alk) / alkaline phosphatase (alp/alk)
[14] = group: parental, systemic / in life observation / body weight / body weight gain
[15] = systemic / in life observation / body weight / body weight + systemic / in life observation / clinical signs / tachypnea + systemic / in …
[16] = systemic / clinical chemistry / cytochrome p450, nos / cytochrome p450, nos + systemic / clinical chemistry / glucose / glucose + systemic…
[17] = systemic / clinical chemistry / cytochrome p450, nos / cytochrome p450, nos + systemic / in life observation / clinical signs / lacrimation …

CCc1nn(CCO)c(CC)c1Oc1cc(C#N)cc(C#N)c1 [Lersivirine]
LEL (rat [1]; [8]): 70 mg/kg/day
NEL (rat [1]; [8]): < 70 mg/kg/day
LOAEL (rat [1]; [9]): > 1000 mg/kg/day
NOAEL (rat [1]; [9]): ≥ 1000 mg/kg/day
LEL (mouse [2]; [10]): 700 mg/kg/day
LOAEL (mouse [2]; [10]): > 700 mg/kg/day
NEL (mouse [2]; [10]): 200 mg/kg/day
NOAEL (mouse [2]; [10]): ≥ 700 mg/kg/day
LEL (mouse [2]; [11]): 700 mg/kg/day
LOAEL (mouse [2]; [11]): > 700 mg/kg/day
NEL (mouse [2]; [11]): 200 mg/kg/day
NOAEL (mouse [2]; [11]): ≥ 700 mg/kg/day
LOAEL (dog; [12]): > 60 mg/kg/day
NOAEL (dog; [12]): ≥ 60 mg/kg/day
LEL (dog; [13]): 7 mg/kg/day
NEL (dog; [13]): < 7 mg/kg/day
LEL (mouse [3]; [10]): 700 mg/kg/day
LOAEL (mouse [3]; [10]): > 700 mg/kg/day
NEL (mouse [3]; [10]): 200 mg/kg/day
NOAEL (mouse [3]; [10]): ≥ 700 mg/kg/day
LEL (mouse [3]; [14]): 200 mg/kg/day
LOAEL (mouse [3]; [14]): > 700 mg/kg/day
NEL (mouse [3]; [14]): 70 mg/kg/day
NOAEL (mouse [3]; [14]): ≥ 700 mg/kg/day
LEL (rat [4]): 23 mg/kg/day
LOAEL (rat [4]): > 100 mg/kg/day
NEL (rat [4]): < 23 mg/kg/day
NOAEL (rat [4]): ≥ 100 mg/kg/day
LOAEL (rat [5]): > 150 mg/kg/day
NEL (rat [5]): < 150 mg/kg/day
NOAEL (rat [5]): ≥ 150 mg/kg/day
LOAEL (rabbit; [15]): > 500 mg/kg/day
NEL (rabbit; [15]): 20 mg/kg/day
NOAEL (rabbit; [15]): ≥ 500 mg/kg/day
LEL (rabbit; systemic / in life observation / clinical signs / tachypnea + systemic / in life observation / food consumption / food consumption): 200 mg/kg/day
LOAEL (mouse [6]): > 3000 mg/kg/day
NEL (mouse [6]): 750 mg/kg/day
NOAEL (mouse [6]): ≥ 3000 mg/kg/day
LOAEL (rat [7]; [16]): > 300 mg/kg/day
NOAEL (rat [7]; [16]): ≥ 300 mg/kg/day
LEL (rat [7]; [17]): 20 mg/kg/day
NEL (rat [7]; [17]): < 20 mg/kg/day
